IC50 data for 26 molecules are collected here from US11149019B2, “Phenylpyridine derivative and pharmaceutical composition comprising the same” (Daewoong Pharmaceutical Co., Ltd., priority 2017, dated 2021).

For assay [1], the target named is T1, BTK (Homo sapiens, UniProt Q06187).
T1 construct: purchased Promega Corporation
The assay can be described thus: ADP-Glo + BTK Kinase enzyme system kit, inhibitory activity against BTK. It is filed as biochemical. The note with it: BTK enzyme 1 ng/ul, ATP 10 μM, 30° C. for 1 hour, luminescence, duplicate. Here is the method: (§1) Inhibitory activities against BTK and ITK were measured for the compounds prepared in the above Examples as follows.
The inhibitory activities against BTK were evaluated using ‘ADP-Glo™+BTK Kinase enzyme system’ kit (Promega Corporation). In a white 96-well plate, 10 ul of BTK enzyme prepared so as to have a final concentration of 1 ng/ul was mixed with 5 μl of compounds having a final concentration of […] the case of evaluating a single concentration of compound and a concentration of 1000, 300, 100, 30, 10, 3, 1, 0.3, 0.1 and 0.03 nM in the case of IC50 evaluation, and then reacted at room temperature for 15 minutes. 5 ul of substrate and 5 ul of ATP prepared so as to have a final concentration of 10 μM were added to the plate on which reactions were completed, and then allowed to react at 30° C. for 1 hour. All wells of the plate were treated with 25 ul of ADP-Glo™ reagent and allowed to react at 30° C. for 40 minutes. After that, all wells were treated with 50 ul of kinase detection buffer, and then reacted at 30° C. for 30 minutes under light shielding conditions. For the plate on which all reactions were completed, luminescence was measured and the results were calculated. Evaluation was carried out in duplicate, and negative control and positive control were calculated depending on whether or not the enzyme was added without treatment of the compound. The IC50 was calculated based on the calculated values.

Assay [2] deals with T2, ITK (Homo sapiens, UniProt Q08881).
T2 construct: purchased Promega Corporation
T2 sequence (Q08881 1-620): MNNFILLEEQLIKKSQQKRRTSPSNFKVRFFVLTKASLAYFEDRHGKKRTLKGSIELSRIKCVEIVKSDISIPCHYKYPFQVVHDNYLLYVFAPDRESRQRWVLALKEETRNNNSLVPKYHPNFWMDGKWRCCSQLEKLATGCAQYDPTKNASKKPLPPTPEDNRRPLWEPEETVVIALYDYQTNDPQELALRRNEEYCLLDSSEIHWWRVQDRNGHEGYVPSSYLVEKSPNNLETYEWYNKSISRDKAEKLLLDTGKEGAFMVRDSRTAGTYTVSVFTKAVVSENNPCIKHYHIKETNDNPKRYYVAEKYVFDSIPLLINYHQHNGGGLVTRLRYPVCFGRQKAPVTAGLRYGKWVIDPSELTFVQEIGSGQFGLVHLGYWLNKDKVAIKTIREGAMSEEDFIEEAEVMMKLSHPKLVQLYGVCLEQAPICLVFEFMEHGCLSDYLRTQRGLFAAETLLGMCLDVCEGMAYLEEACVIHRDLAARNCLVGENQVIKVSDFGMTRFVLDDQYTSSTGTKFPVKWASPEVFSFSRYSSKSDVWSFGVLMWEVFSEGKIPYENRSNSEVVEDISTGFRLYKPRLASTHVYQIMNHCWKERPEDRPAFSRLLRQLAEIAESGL
The assay can be described thus: ADP-Glo + ITK Kinase enzyme system kit, inhibitory activity against ITK. The conditions noted are these: ITK enzyme 0.4 ng/ul, ATP final concentration of 25 ul, 30° C. for 1 hour, luminescence, duplicate. Format: biochemical. The procedure:
as §1
The inhibitory activity against ITK was evaluated using ‘ADP-Glo™+ITK Kinase enzyme system’ kit (Promega Corporation). In a white 96-well plate, 10 ul of ITK enzyme prepared so as to have a final concentration of 0.4 ng/ul was mixed with 5 ul of compounds having a final concentration of 1 uM in the case of evaluating a single concentration of compound and a concentration of 1000, 300, 100, 30, 10, 3, 1, 0.3, 0.1 and 0.03 nM in the case of IC50 evaluation, and then reacted at room temperature for 15 minutes. To the plate on which reactions were completed, 5 ul of substrate and 5 ul of ATP prepared so as to have a final concentration of […] added and then allowed to react at 30° C. for 1 hour. All wells of the plate were treated with 25 ul of ADP-Glo™ reagent and then allowed to react at 30° C. for 40 minutes. After that, all wells were treated with 50 ul of kinase detection buffer, and then allowed to react at 30° C. for 30 minutes under light shielding conditions. For the plate on which all reactions were completed, luminescence was measured and the results were calculated. Evaluation was carried out in duplicate, and negative control and positive control were calculated depending on whether or not the enzyme was added without treatment of the compound. The IC50 was calculated based on the calculated values.

T1 sequence (Q06187 whole entry): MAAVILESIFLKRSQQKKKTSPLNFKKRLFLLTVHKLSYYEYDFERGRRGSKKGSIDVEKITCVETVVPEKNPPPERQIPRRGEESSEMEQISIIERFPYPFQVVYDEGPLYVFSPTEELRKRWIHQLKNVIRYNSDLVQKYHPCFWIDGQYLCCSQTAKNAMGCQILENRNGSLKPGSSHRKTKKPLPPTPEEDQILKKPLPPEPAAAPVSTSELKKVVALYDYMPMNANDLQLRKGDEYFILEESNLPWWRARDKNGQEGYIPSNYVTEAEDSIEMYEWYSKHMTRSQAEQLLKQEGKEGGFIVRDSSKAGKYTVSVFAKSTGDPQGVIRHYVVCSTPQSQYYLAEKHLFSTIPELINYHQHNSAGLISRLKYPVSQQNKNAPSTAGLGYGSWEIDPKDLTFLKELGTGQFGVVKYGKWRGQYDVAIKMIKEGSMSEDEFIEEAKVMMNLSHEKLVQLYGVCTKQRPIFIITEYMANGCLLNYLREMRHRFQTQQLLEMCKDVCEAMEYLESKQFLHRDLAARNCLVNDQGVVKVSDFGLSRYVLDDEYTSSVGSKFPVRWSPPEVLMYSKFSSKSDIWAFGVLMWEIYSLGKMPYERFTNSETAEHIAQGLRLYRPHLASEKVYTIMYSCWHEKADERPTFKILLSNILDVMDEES

In the case of `C=CC(=O)Nc1ccc(-c2cc(Cc3ccccc3)cc(Nc3cc(C)[nH]n3)n2)cc1` [Compound 1, N-(4-(4-benzyl-6-(5-methyl-1H-pyrazol-3-ylamino)pyridin-2-yl)phenyl)acrylamide], the IC50 in assay [1] was more than 1000 nM; in assay [2], 289 nM.

In the case of `C=CC(=O)Nc1cccc(-c2cc(Cc3ccccc3)cc(Nc3cc(C)[nH]n3)n2)c1` [Compound 2, N-(3-(4-benzyl-6-(5-methyl-1H-pyrazol-3-ylamino)pyridin-2-yl)phenyl)acrylamide], the IC50 in assay [1] turned out to be 24.1 nM; in assay [2] it was 88.2 nM.

With `C#CC(=O)Nc1ccc(-c2cc(Cc3ccccc3)cc(Nc3cc(C)[nH]n3)n2)cc1` [Compound 3, N-(4-(4-benzyl-6-((5-methyl-1H-pyrazol-3-yl)amino)pyridin-2-yl)phenyl)propiolamide], the IC50 in assay [1] was found to be 45.9 nM; in assay [2] it was 23.5 nM.

Consider `C=CC(=O)Nc1cccc(-c2cc(Cc3ccccc3)cc(Nc3cc(C4CCCC4)[nH]n3)n2)c1` [Compound 4, N-(3-(4-benzyl-6-(5-cyclopentyl-1H-pyrazol-3-ylamino)pyridin-2-yl)phenyl)acrylamide], for which the results for the IC50 in assay [1] and in assay [2] were 634 nM and 91.4 nM, respectively.

Consider `C=CC(=O)Nc1cccc(-c2cc(Cc3ccccc3)cc(Nc3cc(-c4ccccc4)[nH]n3)n2)c1` [Compound 5, N-(3-(4-benzyl-6-((5-phenyl-1H-pyrazol-3-yl)amino)pyridin-2-yl)phenyl)acrylamide], for which the figures for the IC50 in assay [1] and in assay [2] were 777 nM and 317 nM, respectively.

As for `C#CC(=O)Nc1cccc(-c2cc(Cc3ccccc3)cc(Nc3cc(C)[nH]n3)n2)c1` [Compound 6, N-(3-(4-benzyl-6-((5-methyl-1H-pyrazol-3-yl)amino)pyridin-2-yl)phenyl)propiolamide], the IC50 is more than 1000 nM in assay [1] and more than 500 nM in assay [2].

With `C=CC(=O)Nc1cccc(-c2cc(Cc3ccccc3)cc(Nc3cc(-c4ccc(Oc5ccccc5)cc4)[nH]n3)n2)c1` [Compound 7, N-(3-(4-benzyl-6-((5-(4-phenoxyphenyl)-1H-pyrazol-3-yl)amino)pyridin-2-yl)phenyl)acrylamide], the results for the IC50 in assay [1] and in assay [2] were 123 nM and more than 500 nM, respectively.

Regarding `C=CC(=O)Nc1cccc(-c2cc(Cc3ccccc3)cc(Nc3cc(Cc4ccc(C)cc4)[nH]n3)n2)c1` [Compound 8], the figures for the IC50 in assay [1] and in assay [2] were 308 nM and 572 nM, respectively.

`C=CC(=O)Nc1cccc(-c2cc(Cc3ccccc3)cc(Nc3cc(C(C)c4ccc(C)cc4)[nH]n3)n2)c1` (stereo not drawn) [Compound 9]: the IC50 in assay [1] and in assay [2] was more than 1000 nM in each case.

For `C=CC(=O)Nc1cccc(-c2cc(Cc3ccccc3)cc(Nc3cc(CCc4ccccc4)[nH]n3)n2)c1` [Compound 10, N-(3-(4-benzyl-6-((5-phenethyl-1H-pyrazol-3-yl)amino)pyridin-2-yl)phenyl)acrylamide], the IC50 worked out at 65.1 nM in assay [1] and 502 nM in assay [2].

With `C=CC(=O)Nc1cccc(-c2cc(Cc3ccccc3)cc(Nc3cc[nH]n3)n2)c1` [Compound 11], the IC50 in assay [1] was determined as 17.5 nM; in assay [2] it was 134 nM.

As for `C=CC(=O)Nc1cccc(-c2cccc(Nc3cc(C)[nH]n3)n2)c1` [Compound 12], the IC50 in assay [1] was 7.8 nM; in assay [2], 995 nM.

Take `C=CC(=O)Nc1cccc(-c2cccc(Nc3cc(C4CCCC4)[nH]n3)n2)c1` [Compound 13, N-(3-(6-((5-cyclopentyl-1H-pyrazol-3-yl)amino)pyridin-2-yl)phenyl)acrylamide]: the figures for the IC50 in assay [1] and in assay [2] were 138 nM and 266 nM, respectively.

On to `C=CC(=O)Nc1cccc(-c2cccc(Nc3cc(-c4ccccc4)[nH]n3)n2)c1` [Compound 14, N-(3-(6-(5-phenyl-1H-pyrazol-3-ylamino)pyridin-2-yl)phenyl)acrylamide], for which the results for the IC50 in assay [1] and in assay [2] were 350 nM and 399 nM, respectively.

Consider `C=CC(=O)Nc1cccc(-c2cccc(Nc3cc[nH]n3)n2)c1` [Compound 15, N-(3-(6-(1H-pyrazol-3-ylamino)pyridin-2-yl)phenyl)acrylamide], for which the IC50 in assay [1] is 18 nM; in assay [2], more than 500 nM.

Consider `C=CC(=O)Nc1cccc(-c2cc(C)cc(Nc3cc(C)[nH]n3)n2)c1` [Compound 16, N-(3-(4-methyl-6-(5-methyl-1H-pyrazol-3-ylamino)pyridin-2-yl)phenyl)acrylamide], for which the IC50 stood at 6.1 nM in assay [1] and 192 nM in assay [2].

Turning to `C=CC(=O)Nc1cccc(-c2cc(C(F)(F)F)cc(Nc3cc(C)[nH]n3)n2)c1` [Compound 17], the IC50 in assay [1] was found to be 11.1 nM; in assay [2], 131 nM.

In the case of `C=CC(=O)Nc1cccc(-c2cc(C)cc(Nc3ccccn3)n2)c1` [Compound 18, N-(3-(4-methyl-6-(pyridin-2-ylamino)pyridin-2-yl)phenyl)acrylamide], the IC50 in assay [1] was 28.7 nM; in assay [2], more than 1000 nM.

With `C=CC(=O)Nc1cccc(-c2cc(CNC(C)C(C)(C)C)cc(Nc3cc(C)[nH]n3)n2)c1` (stereo not drawn) [Compound 19], the IC50 is 74.7 nM in assay [1] and more than 500 nM in assay [2].

In the case of `C=CC(=O)Nc1cccc(-c2cc(C(=O)NC(C)C(C)(C)C)cc(Nc3cc(C)[nH]n3)n2)c1` (stereo not drawn) [Compound 20, 2-(3-acrylamidophenyl)-N-(3,3-dimethylbutan-2-yl)-6-(5-methyl-1H-pyrazol-3-ylamino)isonicotinamide], the IC50 was 28.1 nM in assay [1] and 254 nM in assay [2].

With `C=CC(=O)Nc1cccc(-c2cc(C(=O)N(C)C)cc(Nc3cc(C)[nH]n3)n2)c1` [Compound 21, 2-(3-acrylamidophenyl)-N,N-dimethyl-6-((5-methyl-1H-pyrazol-3-yl)amino)isonicotinamide], the IC50 is 52.6 nM in assay [1] and more than 500 nM in assay [2].

Turning to `C=CC(=O)Nc1cccc(-c2cc(CN3CCOCC3)cc(Nc3cc(C)[nH]n3)n2)c1` [Compound 22, N-(3-(6-((5-methyl-1H-pyrazol-3-yl)amino)-4-(morpholinomethyl)pyridin-2-yl)phenyl)acrylamide], the IC50 came out at 6.1 nM in assay [1] and 77.8 nM in assay [2].

Regarding `C=CC(=O)Nc1cccc(-c2cc(-c3ccccc3)cc(Nc3cc(C)[nH]n3)n2)c1` [Compound 23, N-(3-(6-(5-methyl-1H-pyrazol-3-ylamino)-4-phenylpyridin-2-yl)phenyl)acrylamide], the figures for the IC50 in assay [1] and in assay [2] were 13.1 nM and 128 nM, respectively.

For the molecule `C=CC(=O)Nc1cccc(-c2cc(C)cc(Nc3cc(CC)[nH]n3)n2)c1` [Compound 24, N-(3-(6-(5-ethyl-1H-pyrazol-3-ylamino)-4-methylpyridin-2-yl)phenyl)acrylamide], the IC50 stood at 10.9 nM in assay [1] and 159 nM in assay [2].

With `C=CC(=O)Nc1cccc(-c2cc(C)cc(Nc3cc(C4CC4)[nH]n3)n2)c1` [Compound 25, N-(3-(6-((5-cyclopropyl-1H-pyrazol-3-yl)amino)-4-methylpyridin-2-yl)phenyl)acrylamide], the IC50 in assay [1] is 8.6 nM; in assay [2] it was 59.3 nM.

With `C=CC(=O)Nc1cccc(-c2cc(CN3CCN(C(=O)C(C)C)CC3)cc(Nc3ncc(C)s3)n2)c1` [Compound 62, N (3(4((4-isobutyrylpiperazin-1-yl)methyl)-6-(5-methylthiazol-2-ylamino)pyridin-2-yl)phenyl)acrylamide], the IC50 in assay [2] worked out at 8.1 nM.
